ChEMBL document CHEMBL5500412, “Discovery of Highly Selective, Potent, Covalent, and Orally Bioavailable Factor XIIa Inhibitors for the Treatment of Thrombo-Inflammation” (J Med Chem, 2024)
Calls of active or inactive are those of the source. The calls are words filed in the database; no cut-off is given here.

Assays:
[1] = test system: Mus musculus; assay: Antiinflammatory activity in carrageenan-induced thrombosis in male BALB/c mouse model assessed as reduction in IL-1 beta level administered as oral dose by ELISA method; format: functional, organism-based; details: dose 10-30 mg/kg
[2] = molecular target: T1, Coagulation factor XII (Homo sapiens, UniProt P00748); assay: Binding affinity to FXIIa (unknown origin) assessed as inhibition constant using H-D-Pro-Phe-Arg-pNA.2HCl as substrate by spectrophotometric analysis
T1 sequence (P00748 whole entry): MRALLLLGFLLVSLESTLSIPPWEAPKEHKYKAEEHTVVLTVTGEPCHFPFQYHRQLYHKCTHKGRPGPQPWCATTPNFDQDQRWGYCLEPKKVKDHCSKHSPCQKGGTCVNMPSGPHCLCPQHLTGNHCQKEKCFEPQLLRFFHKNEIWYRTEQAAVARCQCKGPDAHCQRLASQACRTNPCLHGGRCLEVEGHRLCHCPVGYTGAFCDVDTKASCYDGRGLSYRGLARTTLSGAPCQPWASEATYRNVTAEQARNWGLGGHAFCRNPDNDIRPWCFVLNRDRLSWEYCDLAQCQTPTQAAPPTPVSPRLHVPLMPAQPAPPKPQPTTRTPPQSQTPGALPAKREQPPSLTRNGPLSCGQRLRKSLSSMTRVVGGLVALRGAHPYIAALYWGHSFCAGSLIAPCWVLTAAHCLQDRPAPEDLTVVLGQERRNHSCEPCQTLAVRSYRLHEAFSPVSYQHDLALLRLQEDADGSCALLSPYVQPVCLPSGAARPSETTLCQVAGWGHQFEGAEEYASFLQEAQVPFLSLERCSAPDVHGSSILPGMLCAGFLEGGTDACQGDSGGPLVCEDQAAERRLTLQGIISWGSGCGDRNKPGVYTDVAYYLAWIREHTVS

[3] = molecular target: T2, Coagulation factor XII (Homo sapiens) (UniProt P00748); assay: Inhibition of FXIIa (unknown origin) using H-D-Pro-Phe-Arg-pNA as substrate preincubated for 20 mins followed by 100 fold dilution upto 120 mins then substrate addition for 60 mins by jump dilution assay; details: time <= 200.0 min
T2 sequence (whole entry): T1 sequence (P00748 whole entry)

[4] = Oral bioavailability in BALB/c mouse at 5 mg/kg measured upto 24 hrs by LC-MS/MS analysis; format: ADME, organism-based; details: in vivo
[5] = Toxicity in BALB/c mouse assessed as effect on kidney at 60 to 100 mg/kg, po measured after 14 days by H and E staining based analysis; format: organism-based; details: in vivo, 336 h, dose 60-100 mg/kg, time 14 day
[6] = MRT(0 to infinity) in BALB/c mouse at 5 mg/kg, po measured upto 24 hrs by LC-MS/MS analysis; format: ADME, organism-based; details: in vivo
[7] = AUC (0 to infinity) in BALB/c mouse at 5 mg/kg, po measured upto 24 hrs by LC-MS/MS analysis; format: ADME, organism-based; details: in vivo
[8] = Half life in BALB/c mouse at 1 mg/kg, iv measured upto 24 hrs by LC-MS/MS analysis; format: ADME, organism-based; details: in vivo

| SMILES | Activity [1] | Ki [2] [nM] | inhibition [3] | bioavailability [4] [%] | Activity [5] | MRT inf [6] [h] | AUC(0-inf) [7] [ng·h/mL] | half-life [8] [min] |
| --- | --- | --- | --- | --- | --- | --- | --- | --- |
| CC(C)N1CCN(c2ccc(C(=O)n3nc(-c4ccccn4)nc3N)c3ccccc23)CC1 | Dose-Dependent Effect | – | – | – | – | – | – | – |
| CC(C)N1CCCN(c2ccc(C(=O)n3nc(-c4ccccn4)nc3N)c3ccccc23)CC1 | – | 11.4 | inactive | 28.2 | Non-Toxic | 1.6 | 17.8 | 45 |
